The SangsterLogP compilation

Legend:
[1] = method code SF-AS, from DOI: 10.1016/0304-4165(70)90354-5, PMID: 5474547; conditions: pH 7.4
[2] = not given; remark: listed apart in the source
[3] = not given; remark: listed apart in the source
[4] = not given; remark: listed apart in the source
[5] = method code SF, from DOI: 10.1021/jm00010a006, PMID: 7752187
[6] = not given; remark: listed apart in the source
[7] = method code SF, from DOI: 10.1016/0021-9673(91)85016-9; conditions: pH 7.0
[8] = method code SF-AS, from DOI: 10.1016/0006-2952(75)90156-2, PMID: 235934; conditions: pH 7.4
[9] = method code SF-HPLC, from PMID: 1293941
[10] = method code SF, from DOI: 10.1002/jps.2600620102, PMID: 4566530
[11] = method code SF, from PMID: 15170; conditions: pH 5.0
[12] = method code SF, from DOI: 10.1248/cpb.42.1525, PMID: 7923475
[13] = method code SF-HPLC, from PMID: 1880579; conditions: pH 7.4
[14] = not given; remark: listed apart in the source
[15] = method code SF-AS, from PMID: 2748530
[16] = method code SF-POL, from DOI: 10.1111/j.1365-2044.1990.tb14524.x, PMID: 2316851; conditions: pH 7.1
[17] = method code SF-HPLC, from DOI: 10.1021/jm010289a, PMID: 11754587; conditions: pH 7.0
[18] = method code SF-GLC, from Hermens, J., & De Bruijn, J. (1987). A QSAR study for fish toxicity data of organophosphorus compounds. QSAR in Drug Design and Toxicology, 10, 343-345.
[19] = not given; remark: listed apart in the source
[20] = method code SF-RC, from DOI: 10.1016/0048-3575(88)90037-5
[21] = not given; remark: listed apart in the source
[22] = not given; remark: listed apart in the source
[23] = not given; remark: listed apart in the source
[24] = method code SF-AS, from DOI: 10.1002/qsar.19870060104
[25] = method code SF-AS, from DOI: 10.1002/chin.198419165, PMID: 6653771; conditions: pH 2.5
[26] = not given; remark: listed apart in the source
[27] = method code SF-HPLC, from DOI: 10.1007/bf03246517
[28] = not given; remark: listed apart in the source
[29] = method code SF, from DOI: 10.1007/s00253-012-4358-8, PMID: 23081771; conditions: pH 7.0
[30] = method code SF-AS, from DOI: 10.1021/jm00307a001, PMID: 5637185
[31] = method code SF-EPR, from DOI: 10.1016/0003-9861(82)90097-2, PMID: 6284047; conditions: pH 7.4
[32] = not given; remark: listed apart in the source
[33] = method code SF, from DOI: 10.1002/jps.2600641111, PMID: 1195110; conditions: pH 7.4
[34] = method code SF-HPLC, from DOI: 10.1248/bpb.16.154, PMID: 8364451
[35] = method code SF-RC, from DOI: 10.1016/s0969-8051(98)00005-5, PMID: 9720665; conditions: pH 7.0
[36] = method code SF-HPLC, from DOI: 10.1124/dmd.30.12.1497, PMID: 12433825; conditions: pH 7.4
[37] = method code SF-AS, from DOI: 10.1016/0014-2999(86)90191-3, PMID: 3780854; conditions: pH 7.4
[38] = method code SF-AS, from DOI: 10.1002/jps.2600600712, PMID: 4398902
[39] = method code SF-RC, from DOI: 10.1002/jps.2600840617, PMID: 7562417
[40] = method code SF-RC,FL, from DOI: 10.1016/0006-2952(81)90006-x, PMID: 6456004
[41] = not given; remark: listed apart in the source
[42] = not given; remark: listed apart in the source
[43] = method code SF-RC, from DOI: 10.1016/0006-2952(81)90006-x, PMID: 6456004
[44] = not given; remark: listed apart in the source
[45] = method code SF, from Zheng, Y.; Wu, F.; Li, Y. (2001). Determination of ionization constant and partition coefficient of monoxidine. Journal of Shenyang Pharmaceutical University, 18(1)37-39.
[46] = method code SF, from DOI: 10.1021/jm00111a036, PMID: 2066990
[47] = method code SF-AS, from Korenman, Y.; Sotnikova, G. (1975). Extraction of vanillins from aqueous solutions. Zh. Prikl. Khim., 48(1)188-191.
[48] = method code SF-HPLC, from DOI: 10.1016/j.bmc.2011.10.084, PMID: 22130421; conditions: pH 7.4
[49] = method code SF, from DOI: 10.1246/bcsj.60.4357
[50] = method code SF-RC, from DOI: 10.1016/0006-2952(75)90159-8, PMID: 1168477

Q: With `CCCn1cnc2c(N)ncnc21` as the compound, how does the logP read?
A: 0.74

Q: Which logD [1] does the source give for `Cc1cc2ccccc2[nH]1` here?
A: 2.53

Q: For `CC(C)(C)c1cn2nc(S(N)(=O)=O)sc2n1`, which logP [2] is on record?
A: 2.15

Q: With `CCCCCCCCO` as the compound, how does the logP [3] read?
A: 3

Q: Which logP [4] does the source give for `CC(Oc1ccc(Cl)cc1Cl)C(=O)O` (stereo unspecified) here?
A: 3.43

Q: For `c1ccc(Cn2cnnc2)cc1`, which logP [5] is on record?
A: 0.74

Q: With `CCOc1ccccc1O` as the compound, how does the logP [6] read?
A: 1.91

Q: For `O=c1ccn2c(n1)OC1C(O)C(CO)OC12` (stereo unspecified), which logD [7] is on record?
A: -2.85

Q: Which logD [8] does the source give for `CCOc1ccc([N+](=O)[O-])cc1` here?
A: 2.53

Q: Which logP [9] does the source give for `CCOC(=O)c1ccc(N)cc1` here?
A: 1.87

Q: With `Cc1cc(C)c2oc(=O)sc2c1` as the compound, how does the logP [10] read?
A: 3.25

Q: For `CCC1(CC)C(=O)NC(=O)NC1=O`, which logD [11] is on record?
A: 0.71

Q: Which logP [12] does the source give for `COC(=O)c1ccccc1` here?
A: 2.09

Q: For `O=[N+]([O-])c1nccn1C1OC(CI)C(O)C1O` (stereo unspecified), which logD [13] is on record?
A: 0.7

Q: For `C1COCCOCCOCCO1`, which logP [14] is on record?
A: -0.04

Q: For `O=[N+]([O-])c1nccn1CC(O)COCC(F)(F)F` (stereo unspecified), which logP [15] is on record?
A: 0.46

Q: For `NC(=S)NN=C1C=CC(=NNC(N)N)C=C1`, which logD [16] is on record?
A: -1.4

Q: With `CN1C(=O)C(=O)c2ccccc21` as the compound, how does the logD [17] read?
A: 0.63

Q: For `COP(=S)(OC)Oc1ccc(Cl)cc1C#N`, which logP [18] is on record?
A: 3.41

Q: For `CCOP(=S)(OCC)Oc1nc(Cl)c(Cl)cc1Cl`, which logP [19] is on record?
A: 4.77

Q: Which logP [20] does the source give for `CC(C)Nc1nc(Cl)nc(NCCO)n1` here?
A: 0.78

Q: For `CCOC(=O)c1ccc(O)cc1`, which logP [21] is on record?
A: 2.25

Q: Which logP [22] does the source give for `COc1c(Cl)c(Cl)c(Cl)c(OC)c1OC` here?
A: 4.8

Q: With `O=[N+]([O-])c1nccn1[C@H]1O[C@H](CF)[C@@H](O)[C@@H]1O` as the compound, how does the logP [23] read?
A: 0.04

Q: For `O=c1ccoc2cc(O)ccc12`, which logP [24] is on record?
A: 1.44

Q: With `N#CCNc1ccccc1C(=O)O` as the compound, how does the logD [25] read?
A: 1.75

Q: Which logP [26] does the source give for `COc1cc(O)cc(C(C)=O)c1` here?
A: 1.85

Q: For `OCCc1ccc(O)cc1`, which logP [27] is on record?
A: 0.69

Q: With `O=C(NCCO[N+](=O)[O-])c1cccnc1` as the compound, how does the logP [28] read?
A: -1.02

Q: For `C=Cc1ccc(O)cc1`, which logD [29] is on record?
A: 2.36

Q: Which logP [30] does the source give for `C#CC1(O)CCCCC1` here?
A: 1.73

Q: With `CCC1(C)OCC(C)(C)N1O` (stereo unspecified) as the compound, how does the logD [31] read?
A: 0.57

Q: Which logP [32] does the source give for `Cc1ccccc1C` here?
A: 3.29

Q: With `CC(=O)NCCn1c([N+](=O)[O-])cnc1C` as the compound, how does the logD [33] read?
A: -0.47

Q: Which logP [34] does the source give for `O=C(O)CNC(=O)c1ccccc1O` here?
A: 0.95

Q: For `OC1OC2COC(CI)OC2C(O)C1O` (stereo unspecified), which logD [35] is on record?
A: 1.1

Q: For `CCOc1ccccc1C(N)=O`, which logD [36] is on record?
A: 1.34

Q: Which logD [37] does the source give for `COc1noc2c1CN(C)CC2` here?
A: 0.4

Q: With `CCN1CCCCCC1=O` as the compound, how does the logP [38] read?
A: 0.65

Q: Which logP [39] does the source give for `Nc1ccn(C[C@@H](CO)OCP(=O)(O)O)c(=O)n1` here?
A: -3.17

Q: With `NCCc1ccc(O)cc1` as the compound, how does the logP [40] read?
A: -0.24

Q: Which logP [41] does the source give for `NC(N)=Nc1nc(CSCCC(N)=NS(N)(=O)=O)cs1` here?
A: -0.56

Q: With `O=[N+]([O-])c1nccn1C1OCC(I)CC1F` (stereo unspecified) as the compound, how does the logP [42] read?
A: 0.8

Q: Which logP [43] does the source give for `NCCc1ccccc1` here?
A: 1.16

Q: With `CCOC(=O)c1ccccc1O` as the compound, how does the logP [44] read?
A: 2.23

Q: With `COc1nc(C)nc(Cl)c1NC1=NCCN1` as the compound, how does the logP [45] read?
A: 1.08

Q: Which logP [46] does the source give for `O=[N+]([O-])c1nccn1CC(O)C/C=C/I` (stereo unspecified) here?
A: 0.4

Q: Which logP [47] does the source give for `COc1ccc(C=O)cc1O` here?
A: 0.97

Q: For `Cc1ncc([N+](=O)[O-])n1Cc1cn(CCF)nn1`, which logD [48] is on record?
A: -0.38

Q: For `CCc1cc([N+](=O)[O-])cc([N+](=O)[O-])c1O`, which logP [49] is on record?
A: 2.67

Q: For `C=CCN(C(C)=O)C(C)C`, which logP [50] is on record?
A: 1.14
